The values that follow come from patent US7022311B1, “Powdery inhalational preparations and process for producing the same” (Kaken Pharmaceutical Co., Ltd., priority 1999, dated 2006).

Peptide text beside a SMILES is read from it.

A short description of the data set: Moisture absorption test (hygroscopic properties) of test carriers. The data set is classed as physicochemical. Further details: key to % Moisture Absorption: x: Not possible to measure (because the samples deliquesced.). The following applies: for % Moisture Absorption: 25° C.; for Hygroscopicity, result in words: moisture absorption tests, comparison of carriers. The method, then: For the objective of selecting a material suitable as the carrier for a dry powder inhalation, moisture absorption tests were performed on erythritol, xylitol, lactose, D-mannitol, Amalty, glucose, Stevia, Benecoat and aspartame. […] (Tables 1, 2, and 3)
In order to ascertain that trehalose is a material having properties suitable as a carrier for dry powder inhalations, it was compared to lactose, a well-known carrier for dry powder inhalation. A test was carried out for comparing hygroscopicity. The trehalose used was the product of Asahi Kasei Kogyo KK, and Lactose 325M from the DMV Company. […] (Table 4, 5)

[1] abbreviates: Table 2, Humidity 75%, 24 Hours.
Where [2] appears, read: Table 2, Humidity 75%, 48 Hours.
Where [3] appears, read: Table 2, Humidity 75%, 72 Hours.
Where [4] appears, read: Table 2, Humidity 75%, 168 Hours.
[5] abbreviates: Table 3, Humidity 90%, 16 Hours.
Where [6] appears, read: Table 3, Humidity 90%, 24 Hours.
The mark [7] stands for this setting: Table 3, Humidity 90%, 48 Hours.
Setting [8] is: Table 3, Humidity 90%, 72 Hours.
[9] abbreviates: Table 3, Humidity 90%, 168 Hours.
Setting [10] is: Table 1, Humidity 60%, 24 Hours.
The mark [11] stands for this setting: Table 1, Humidity 60%, 72 Hours.
Setting [12] is: Table 1, Humidity 60%, 168 Hours.
Where [13] appears, read: Table 1, Humidity 60%, 366 Hours.
Where [14] appears, read: Table 2, Humidity 75%, 336 Hours.

In the case of `COC(=O)[C@H](Cc1ccccc1)NC(=O)[C@@H](N)CC(=O)O` [Aspartame] (H-Asp-Phe-OMe), the “% Moisture Absorption” value runs as follows: under setting [1], 6.539%; under setting [2], 10.877%; under setting [3], 10.985%; under setting [4], 11.163%; under setting [5], 10.476%; under setting [6], 10.741%. The “% Moisture Absorption” value is listed as 11.448% under setting [7], 11.521% under setting [8] and 11.749% under setting [9].
In the case of `OC[C@@H](O)[C@@H](O[C@H]1O[C@H](CO)[C@@H](O)[C@H](O)[C@H]1O)[C@H](O)[C@@H](O)CO` [Amalty], the “% Moisture Absorption” value is 0.478% under setting [1]; 1.138% under setting [2]; 1.171% under setting [3]; 1.252% under setting [4]; 0.775% under setting [5]; 0.971% under setting [6]. In addition, the “% Moisture Absorption” value is, setting by setting: under setting [7], 2.513%; under setting [8], 3.373%; under setting [9], 8.391%.
Take `OC[C@H]1O[C@H](O[C@H]2O[C@H](CO)[C@@H](O)[C@H](O)[C@H]2O)[C@H](O)[C@@H](O)[C@@H]1O` [Trehalose]: the “Hygroscopicity, result in words” value is “only slightly hygroscopic”. Also, the “% Moisture Absorption” value (Table 4, Humidity 60%, 24 Hours) is 0.000%. Besides, the “% Moisture Absorption” value (Table 4, Humidity 60%, 72 Hours) worked out at 0.000%. In addition, the “% Moisture Absorption” value (Table 4, Humidity 60%, 168 Hours) turned out to be 0.000%. Moreover, the “% Moisture Absorption” value (Table 4, Humidity 60%, 366 Hours) was 0.000%. In addition, the “% Moisture Absorption” value (Table 5, Humidity 75%, 48 Hours) is on record as 0.008%. The “% Moisture Absorption” value (Table 5, Humidity 75%, 72 Hours) came out at 0.023%. In addition, the “% Moisture Absorption” value (Table 5, Humidity 75%, 168 Hours) amounted to 0.020%.
For the molecule `OC[C@@H](O)[C@@H](O)[C@H](O)[C@H](O)CO` [D-Mannitol], the “% Moisture Absorption” value runs as follows: under setting [1], 0.019%; under setting [2], 0.019%; under setting [3], 0.019%; under setting [4], 0.028%; under setting [5], 0.539%; under setting [6], 0.672%. Besides, the “% Moisture Absorption” value runs as follows: under setting [7], 0.806%; under setting [8], 0.916%; under setting [9], 1.122%.
For `OC[C@@H](O)[C@H](O)[C@@H](O)CO` [Xylitol], the “% Moisture Absorption” value reads like this: under setting [10], 0.000%; under setting [11], 0.000%; under setting [12], 0.019%; under setting [13], 0.021%; under setting [1], 0.087%; under setting [2], 0.104%. For the same molecule, the “% Moisture Absorption” value under setting [3] is 0.126%; the “% Moisture Absorption” value under setting [4] is 0.124%; the “% Moisture Absorption” value under setting [14] amounted to 0.126%; the “% Moisture Absorption” value under setting [6] is reported as 3.796%; the “% Moisture Absorption” value under setting [7] is 17.917%; the “% Moisture Absorption” value under setting [8] was “x”. Besides, the “% Moisture Absorption” value under setting [9] is reported as “x”.
`OC[C@@H](O)[C@@H](O)CO` [Erythritol]: the “Hygroscopicity, result in words” value is “least hygroscopic”. The “% Moisture Absorption” value under setting [10] came to 0.000%. Moreover, under setting [11], the “% Moisture Absorption” value is listed as 0.000%. For the same molecule, the “% Moisture Absorption” value under setting [12] worked out at 0.000%. Further, the “% Moisture Absorption” value under setting [13] worked out at 0.000%. Moreover, under setting [1], the “% Moisture Absorption” value came out at 0.008%. Moreover, the “% Moisture Absorption” value under setting [2] is 0.011%. Also, the “% Moisture Absorption” value under setting [3] is 0.014%. The “% Moisture Absorption” value under setting [4] is 0.010%. Also, the “% Moisture Absorption” value under setting [14] amounted to 0.012%. Also, the “% Moisture Absorption” value under setting [6] is 0.055%. The “% Moisture Absorption” value under setting [7] stood at 0.070%. Also, the “% Moisture Absorption” value under setting [8] is 0.070%. Further, under setting [9], the “% Moisture Absorption” value is recorded as 0.070%.
